Source: the supplement of paper PMC11208160

Assay: recombinant barcode read abundance after kanamycin selection (control-corrected) (log10(CPM+1)); higher = more efficient recombination; sequences stand for … in AGTGCAGAGAAAATCGGCCAGTTTTCTCTGCCTGCAGTCCGCATGCCGT…AGATTTATGCAGCGGACTGCCTTTCTCCCAAAGTGATAAACCGGACAGTATCATGGACCGGTTTTCCCGGTAATCCGTATTTGCAAGGTTGGTTTCACT; site = the 11-nt target
Outline: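 Duplicate cultures were plated either on chloramphenicol/ampicillin LB agar, serving as control, or on chloramphenicol/ampicillin/kanamycin with 0.1 mM IPTG. These came from a pooled E. coli library co-electroporated with a donor plasmid, each member pairing a target with an IS621 bridge RNA target-binding loop. Recombination efficiency equals averaged, control-corrected counts per million of recombinant-junction barcodes. It is listed as log10(CPM+1).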
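Note: IS621 recombinase and bridge RNA in Escherichia coli cells.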

| Sequence | recombinant barcode read abundance (log10) |
| --- | --- |
| CAGCGGTCTTGGGTTCTAACCTGTTGCGA (site TTATACACTCT) | 0.0232 |
| CAGCTAACTTGGGTTCTAACCTGTTGCCT (site CAAATAACTAG) | 0.0162 |
| CAGCTAACTTGGGTTCTAACCTGTTGCCT (site CAGCTAACTAG) | 1.54 |
| CAGGCGCCTTGGGTTCTAACCTGTTGCCT (site CAGGCGACTAG) | 0.335 |
| CAGGCGCCTTGGGTTCTAACCTGTTGCCT (site CAGGCGCCTAG) | 0.979 |
| CAGGCGCCTTGGGTTCTAACCTGTTGCCT (site CAGGCGGCTAG) | 0.178 |
| CAGGCGCCTTGGGTTCTAACCTGTTGCCT (site CAGGCGTCTAG) | 0.527 |
| CAGGCGTCTTGGGTTCTAACCTGTTGCCT (site CAGGCGACTAG) | 0.109 |
| CAGGCGTCTTGGGTTCTAACCTGTTGCCT (site CAGGCGCCTAG) | 0.289 |
| CAGGCGTCTTGGGTTCTAACCTGTTGCCT (site CAGGCGGCTAG) | 0.111 |
| CAGGCGTCTTGGGTTCTAACCTGTTGCCT (site CAGGCGTCTAG) | 0.59 |
| CAGGGGACTTGGGTTCTAACCTGTTGCCG (site CAAGGGACTCC) | 0.177 |
| CAGGGGACTTGGGTTCTAACCTGTTGCCG (site CAGGGGACTCG) | 0.734 |
| CAGGGGTCTTGGGTTCTAACCTGTTGCAT (site AGCCTCCCTTG) | 0.0284 |
| CAGGGGTCTTGGGTTCTAACCTGTTGCAT (site CAGGGGTCTAT) | 2.04 |
| CAGTAATCTTGGGTTCTAACCTGTTGCCT (site CAGTAATCTAG) | 0.683 |
| CAGTAATCTTGGGTTCTAACCTGTTGCCT (site CAGTACTCTAG) | 0.138 |
| CAGTAATCTTGGGTTCTAACCTGTTGCCT (site CAGTAGTCTAG) | 0.169 |
| CAGTAATCTTGGGTTCTAACCTGTTGCCT (site CAGTATTCTAG) | 0 |
| CAGTCTACTTGGGTTCTAACCTGTTGCCT (site CAGTCTACTAG) | 0.115 |
| CAGTCTACTTGGGTTCTAACCTGTTGCCT (site CCGTCTACTAG) | 0.26 |
| CAGTCTACTTGGGTTCTAACCTGTTGCCT (site CGGTCTACTAG) | 0.132 |
| CAGTCTACTTGGGTTCTAACCTGTTGCCT (site CTGTCTACTAG) | 0.0878 |
| CATAACTCTTGGGTTCTAACCTGTTGCCT (site AATAACTCTAG) | 0.0585 |
| CATAACTCTTGGGTTCTAACCTGTTGCCT (site CATAACTCTAG) | 1.3 |
| CATAACTCTTGGGTTCTAACCTGTTGCCT (site GATAACTCTAG) | 0.331 |

| Sequence | recombinant barcode read abundance (log10) |
| --- | --- |
| CATAACTCTTGGGTTCTAACCTGTTGCCT (site TATAACTCTAG) | 0.0747 |
| CATAAGCCTTGGGTTCTAACCTGTTGCCT (site CATAAGCCTAG) | 0.633 |
| CATAAGCCTTGGGTTCTAACCTGTTGCCT (site CATCAGCCTAG) | 0.07 |
| CATAAGCCTTGGGTTCTAACCTGTTGCCT (site CATGAGCCTAG) | 0.0152 |
| CATAAGCCTTGGGTTCTAACCTGTTGCCT (site CATTAGCCTAG) | 0.0852 |
| CATAGATCTTGGGTTCTAACCTGTTGCAT (site ATCTAGGCTCG) | 0.0128 |
| CATAGATCTTGGGTTCTAACCTGTTGCAT (site CATAGATCTAT) | 1.22 |
| CATAGTCCTTGGGTTCTAACCTGTTGCCT (site CAGAGTCCTAA) | 0.0573 |
| CATAGTCCTTGGGTTCTAACCTGTTGCCT (site CATAGTCCTAG) | 0.605 |
| CATATAGCTTGGGTTCTAACCTGTTGCAT (site CATATAGCTAT) | 0.693 |
| CATATAGCTTGGGTTCTAACCTGTTGCAT (site GATCTAGCTAT) | 0.667 |
| CATCAAGCTTGGGTTCTAACCTGTTGCCT (site CATCAAGCTAG) | 0.929 |
| CATCAAGCTTGGGTTCTAACCTGTTGCCT (site GTATGGACTTT) | 0.0466 |
| CATCCGACTTGGGTTCTAACCTGTTGCTC (site AGATTTCCTAT) | 0.122 |
| CATCCGACTTGGGTTCTAACCTGTTGCTC (site CATCCGACTGA) | 0.193 |
| CATCCGCCTTGGGTTCTAACCTGTTGCCT (site CATCCGACTAG) | 0.0105 |
| CATCCGCCTTGGGTTCTAACCTGTTGCCT (site CATCCGCCTAG) | 1.11 |
| CATCCGCCTTGGGTTCTAACCTGTTGCCT (site CATCCGGCTAG) | 0.0751 |
| CATCCGCCTTGGGTTCTAACCTGTTGCCT (site CATCCGTCTAG) | 0.0465 |
| CATCGAGCTTGGGTTCTAACCTGTTGCCG (site CAACGAGCTCG) | 0.228 |
| CATCGAGCTTGGGTTCTAACCTGTTGCCG (site CACCGAGCTCG) | 0.43 |
| CATCGAGCTTGGGTTCTAACCTGTTGCCG (site CAGCGAGCTCG) | 0.236 |
| CATCGAGCTTGGGTTCTAACCTGTTGCCG (site CATCGAGCTCG) | 0.283 |
| CATCGCTCTTGGGTTCTAACCTGTTGCTT (site CACCGTTCTAA) | 0.0858 |
| CATCGCTCTTGGGTTCTAACCTGTTGCTT (site CATCGCTCTAA) | 0.0993 |
| CATGCGACTTGGGTTCTAACCTGTTGCTG (site CATGCGACTCA) | 0.459 |

| Sequence | recombinant barcode read abundance (log10) |
| --- | --- |
| CATGCGACTTGGGTTCTAACCTGTTGCTG (site CATGCTACTGA) | 0.351 |
| CATGCGCCTTGGGTTCTAACCTGTTGCGG (site CATGCGCCTCC) | 1.26 |
| CATGCGCCTTGGGTTCTAACCTGTTGCGG (site CATGTGTCTCC) | 0.0282 |
| CATGCTTCTTGGGTTCTAACCTGTTGCCT (site AGAAAAGCTTT) | 0.167 |
| CATGCTTCTTGGGTTCTAACCTGTTGCCT (site CATGCTTCTAG) | 0.526 |
| CATGGGACTTGGGTTCTAACCTGTTGCAT (site CATGGGACTAT) | 2.06 |
| CATGGGACTTGGGTTCTAACCTGTTGCAT (site GGCAAACCTCC) | 0.202 |
| CATGTGTCTTGGGTTCTAACCTGTTGCGG (site CATGCGCCTCC) | 0.0713 |
| CATGTGTCTTGGGTTCTAACCTGTTGCGG (site CATGTGTCTCC) | 2.69 |
| CATTATTCTTGGGTTCTAACCTGTTGCCT (site CATAATTCTAG) | 0.04 |
| CATTATTCTTGGGTTCTAACCTGTTGCCT (site CATCATTCTAG) | 0.0417 |
| CATTATTCTTGGGTTCTAACCTGTTGCCT (site CATGATTCTAG) | 0.071 |
| CATTATTCTTGGGTTCTAACCTGTTGCCT (site CATTATTCTAG) | 0.0377 |
| CATTCCACTTGGGTTCTAACCTGTTGCCT (site CATTCCACTAG) | 0.369 |
| CATTCCACTTGGGTTCTAACCTGTTGCCT (site TCGCGTGCTCC) | 0.0105 |
| CATTCTGCTTGGGTTCTAACCTGTTGCCT (site CAATCTGCTAG) | 0.136 |
| CATTCTGCTTGGGTTCTAACCTGTTGCCT (site CACTCTGCTAG) | 0.0741 |
| CATTCTGCTTGGGTTCTAACCTGTTGCCT (site CAGTCTGCTAG) | 0.136 |
| CATTCTGCTTGGGTTCTAACCTGTTGCCT (site CATTCTGCTAG) | 0.12 |
| CATTGGACTTGGGTTCTAACCTGTTGCCT (site CAATGGACTAG) | 0.112 |
| CATTGGACTTGGGTTCTAACCTGTTGCCT (site CACTGGACTAG) | 0.0737 |
| CATTGGACTTGGGTTCTAACCTGTTGCCT (site CAGTGGACTAG) | 0.084 |
| CATTGGACTTGGGTTCTAACCTGTTGCCT (site CATTGGACTAG) | 0.662 |
| CATTGTCCTTGGGTTCTAACCTGTTGCGT (site CATTATCCTAC) | 0.15 |
| CATTGTCCTTGGGTTCTAACCTGTTGCGT (site CATTGTCCTAC) | 1.38 |
